Data published in patent publication US11643385B2, “Polymorphic forms of RAD1901-2HCl” (RADIUS PHARMACEUTICALS, INC., priority 2018, dated 2023).
Marks after values point to notes of the source that are not given here.

Legend:
Assay type in all cases: physicochemical
[1] = Storage at elevated temperature/humidity, solid form checked by XRPD; conditions: <40% RH, 8 hr
Procedure: Samples 1 and 2 were characterized by XRPD at various conditions. XRPD patterns were collected for the samples at ambient condition as the samples were provided; at variable temperature (VT-XRPD); at variable humidity (VH-XRPD); after the samples were exposed to 40° C./75% RH for 1 week and 25° C./97% RH for 1 week, respectively; and after a GVS measurement wherein the samples were exposed to 0-90% RH. Samples 1 and 2 were also characterized by ^1H NMR, TGA, DSC, KF, IC, GVS (exposed to 0-90% RH), PLM, SEM, and HPLC (Table 5). […]

[2] = Solubility assessment and polymorph screen on amorphous RAD1901-2HCl; conditions: for XRPD post 25° C. (form): after maturation at 25° C.; for Solubility observation at 10 vol.: amorphous RAD1901-2HCl, 10 vol. solvent (solvent per sample ID); for Observation After maturation at 50° C.: maturation at 50° C./RT; for XRPD post 50° C./RT (form): after maturation at 50° C./RT
Procedure: In a scale-up preparation of amorphous RAD1901-2HCl, RAD1901-2HCl (600 mg) was dissolved in water (20 vol., 12 mL) and filtered to remove any remaining solid particles. The solution was then aliquoted into 24 HPLC vials, frozen in a dry ice/acetone bath and the solvent removed by lyophilisation. Solids produced by lyophilization were used directly in solubility assessment and polymorph screens in Example 4.
Amorphous RAD1901-2HCl prepared as described in Example 3B was used directly in solubility assessment and polymorph screens (Table 15). XRPD patterns were further obtained for amorphous RAD1901-2HCl prepared using other solvents.
In the polymorph screen of the amorphous RAD1901-2HCl prepared as described in Example 3B, an aliquot of each sample was examined for its morphology under the microscope, both after maturing at 25° C., and after maturing at 50° C./RT. […] In some instances, the sample appeared to be a mixture of various polymorphic forms, e.g. Form 2 and Form 3 (FIGS. 18B-18C), similar to the mixture of Forms 2 and 3 in Sample 2 having an equilibrium between the two solid forms, depending on the prevailing RH.

[3] = Solubility assessment of amorphous RAD1901-2HCl in water/organic solvent mixtures; conditions: for XRPD (form) after stirring: after stirring at 25° C. for 72 hours
Procedure: Samples of amorphous RAD1901-2HCl were prepared in water/organic solvent mixtures containing varying ratios of water. The organic solvents chosen were anhydrous ethanol, methanol and ethyl acetate. The percentage of water in the water/organic solvent mixtures was varied between 0 and 10% (v/v) in order to place a limit on the level of water that can be present during production processes, and to retain formation of Form 1. Above this water activity limit, the hydrated Form 3 will be obtained, as shown by GVS experiments (see FIGS. 6G and 20A). It should be noted that samples prepared in ethyl acetate, were either slurried in anhydrous ethyl acetate, or in water saturated ethyl acetate.
The water activity values for each water/organic solvent mixture are provided in Table 16, and were calculated using the reference given in Bell, Halling, Enzyme Microbiol. Technol. 1997, 20, 471, incorporated herein by reference.

CCNCCc1ccc(CN(CC)c2cc(OC)ccc2[C@@H]2CCc3cc(O)ccc3C2)cc1.Cl.Cl [Form 3]
Form obtained on exposure to <40% RH for 8 hr [1]: Form 2

CCNCCc1ccc(CN(CC)c2cc(OC)ccc2[C@@H]2CCc3cc(O)ccc3C2)cc1.Cl.Cl [Form B22.]
XRPD post 25° C. (form) [2]: Form 3
Solubility observation at 10 vol. [2]: S (S = solution)
Observation After maturation at 25° C. ([2]; maturation at 25° C.): S
Observation After maturation at 50° C. [2]: Green

CCNCCc1ccc(CN(CC)c2cc(OC)ccc2[C@@H]2CCc3cc(O)ccc3C2)cc1.Cl.Cl [Form B23.]
XRPD post 25° C. (form) [2]: Form 3
XRPD post 50° C./RT (form) [2]: Form 3
Solubility observation at 10 vol. [2]: X (X = suspension)
Observation After maturation at 50° C. [2]: Fine

CCNCCc1ccc(CN(CC)c2cc(OC)ccc2[C@@H]2CCc3cc(O)ccc3C2)cc1.Cl.Cl [Form B24.]
XRPD post 25° C. (form) [2]: Form 3
XRPD post 50° C./RT (form) [2]: Form 3
Solubility observation at 10 vol. [2]: X (X = suspension)
Observation After maturation at 50° C. [2]: Fine

CCNCCc1ccc(CN(CC)c2cc(OC)ccc2[C@@H]2CCc3cc(O)ccc3C2)cc1.Cl.Cl [Form C1.]
XRPD (form) after stirring [3]: Form 3

CCNCCc1ccc(CN(CC)c2cc(OC)ccc2[C@@H]2CCc3cc(O)ccc3C2)cc1.Cl.Cl [Form C2.]
XRPD (form) after stirring [3]: Form 1

CCNCCc1ccc(CN(CC)c2cc(OC)ccc2[C@@H]2CCc3cc(O)ccc3C2)cc1.Cl.Cl [Form C3.]
XRPD (form) after stirring [3]: Form 1

CCNCCc1ccc(CN(CC)c2cc(OC)ccc2[C@@H]2CCc3cc(O)ccc3C2)cc1.Cl.Cl [Form C4.]
XRPD (form) after stirring [3]: Form 1

CCNCCc1ccc(CN(CC)c2cc(OC)ccc2[C@@H]2CCc3cc(O)ccc3C2)cc1.Cl.Cl [Form C5.]
Observation After stirring at 25° C. for 72 hours [3]: S

CCNCCc1ccc(CN(CC)c2cc(OC)ccc2[C@@H]2CCc3cc(O)ccc3C2)cc1.Cl.Cl [Form C6.]
Observation After stirring at 25° C. for 72 hours [3]: Crystals
XRPD (form) after stirring [3]: Form 3*

CCNCCc1ccc(CN(CC)c2cc(OC)ccc2[C@@H]2CCc3cc(O)ccc3C2)cc1.Cl.Cl [Form C7.]
Observation After stirring at 25° C. for 72 hours [3]: Crystals
XRPD (form) after stirring [3]: Form 2

CCNCCc1ccc(CN(CC)c2cc(OC)ccc2[C@@H]2CCc3cc(O)ccc3C2)cc1.Cl.Cl [Form C8.]
Observation After stirring at 25° C. for 72 hours [3]: Crystals
XRPD (form) after stirring [3]: Form 2

CCNCCc1ccc(CN(CC)c2cc(OC)ccc2[C@@H]2CCc3cc(O)ccc3C2)cc1.Cl.Cl [Form C9.]
Solubility observation at 20 vol. [3]: X (X = suspension)
Solubility observation at 30 vol [3]: X (X = suspension)
XRPD (form) after stirring [3]: Form 1*

CCNCCc1ccc(CN(CC)c2cc(OC)ccc2[C@@H]2CCc3cc(O)ccc3C2)cc1.Cl.Cl [Form C10.]
Solubility observation at 20 vol. [3]: X (X = suspension)
Solubility observation at 30 vol [3]: X (X = suspension)
XRPD (form) after stirring [3]: Form 3

CCNCCc1ccc(CN(CC)c2cc(OC)ccc2[C@@H]2CCc3cc(O)ccc3C2)cc1.Cl.Cl [amorphous RAD1901-2HCl]
Form crystallized in anhydrous ethanol ([3]; anhydrous ethanol): Form 1
Form produced by slurrying in anhydrous ethyl acetate ([3]; anhydrous ethyl acetate): Form 1
Form crystallized in anhydrous methanol ([3]; anhydrous methanol): Form 2
Form produced by slurrying in water-saturated ethyl acetate ([3]; water-saturated ethyl acetate, water activity 0.77): Form 3
Ratio of water/ethanol up to which crystals were Form 1 ([3]; water/ethanol): up to 5%
Water activity limit above which hydrate Form 3 results instead of Form 1 ([3]; water/ethanol): 0.39
Ratio of water/methanol up to which crystals were Form 2 ([3]; water/methanol): ≤ 2%
Water activity limit above which hydrate Form 3 results instead of Form 2 ([3]; water/methanol): 0.08
